Patent publication US20120172413A1, “INCREASING LIFESPAN BY MODULATING CRTC EXPRESSION OR LOCALIZATION, AND METHODS OF SCREENING FOR MODULATORS OF SAME” (THE SALK INSTITUTE FOR BIOLOGICAL STUDIES, priority 2009, published 2012)
Entries after “also recorded” stand apart in the source; their conditions may differ. Structures can show the parent of a compound that is named as a salt.

How the values were obtained:
[1] = system: CRTC-1::RFP localization in C. elegans intestinal cells; test: CRTC-1::RFP localization during tricaine time course (microscopy); type: in vivo
Experimental: Except for tricaine time course experiments, worms were in 5 μl anesthetic mounted on 2% agarose pads on glass slides under glass cover slips. All photos were taken using a Zeiss Axiovert microscope & Axiocam. Pictures in FIGS. 2a and 3b used apotome optical sectioning. For the tricaine experiments (FIG. 4a&b), L4 worms were placed in wells of a 96 well plate in 100 μl of tetramisole/M9 with or without tricaine (2 mg/ml). Pictures were taken during time course through the 96 well plate.

[2] = system: CRTC-1::RFP localization in intestinal cells; test: Kinase redundancy assay: CRTC-1::RFP localization after tricaine treatment and removal; type: in vivo, C. elegans
Experimental: Worms were subjected to RNAi for AMPK family kinases from hatch. 24 hours post L4 worms were then picked into M9 with tricaine (2 mg/ml) in wells of a […]. Worms were left on a rotational shaker at 20° C. for 2 hours. Using a glass pipette (Mair, W. A simple yet effective method to manipulate C. elegans in liquid. Worm Breeders Gazette 18 (2009)), worms were then placed onto NG plates seeded with E. coli (0P50). When tricaine solution had evaporated (approx 20 min), worms were picked onto fresh OP50 plates, 5 worms per plate. […] Time=0 was when moved to fresh OP50 plates.

[3] = aak-1 (tm1944), aak-2 (ok524) mutants (AMPK null)

Compound	effect on CRTC-1 localization ([1]; 0.1 mg/ml in M9 as anesthetic, pilot experiments)	re-location of CRTC-1::RFP to the cytosol upon drug removal [2, 3]	tricaine-induced nuclear localization of CRTC-1::RFP [2, 3]	re-location of CRTC-1::RFP to the cytosol upon drug removal ([2]; aak-1 (tm1944), aak-2 (ok524) mutants (AMPK null), listed as Tricaine)	reversibility of CRTC-1 nuclear localization after drug removal ([2]; wild type background)	CRTC-1::RFP localization ([1]; CRTC-1::RFP with calcineurin (TAX-6) binding site mutated, 60 minutes of tricaine treatment)	CRTC-1::RFP localization ([1]; tax-6 (ok2065) deletion mutant, up to 2 hours of tricaine treatment)	CRTC-1::RFP localization ([1]; wild type background, intestinal cells, tricaine (2 mg/ml) in M9)	time to CRTC-1::RFP nuclear localization ([1]; wild type background, tricaine added in M9) [min]
c1ccc(C2CN3CCSC3=N2)cc1 (stereo not drawn) [tetramisole hydrochloride]	no effect								
CCOC(=O)c1cccc(N)c1 [tricaine]		relocated to the cytoplasm	expedited	delayed	reversible within two hours	did not shuttle into the nucleus; also recorded: no effect	invariably cytosolic; also recorded: does not respond	rapid nuclear localization	≤ 30
